Drawing on publication PMC9516332 (Frontiers in Oncology, 2022), this text covers inhibition for six molecules.

Holding throughout (assay): Kinase panel profiling at 1 µmol/L (MSA or IMAP), percentage inhibition
Common to all, as to format: biochemical

The target of experiment [1] is panel of 255 wild-type kinases (Homo sapiens, UniProt P78368). Particulars: kinase CK1γ2; 1 µmol/L single concentration; read-out: %-inhibition at 1 µmol/L, CK1γ2.
For experiment [2], the target named is panel of 255 wild-type kinases (Homo sapiens, UniProt Q00534). Particulars: CDK6/CycD3 kinase assay; 1 µmol/L single concentration; read-out: %-inhibition CDK6/CycD3.
The target of experiment [3] is panel of 255 wild-type kinases (Homo sapiens, UniProt Q02763). The conditions noted are these: kinase TIE2; 1 µmol/L single concentration; read-out: %-inhibition at 1 µmol/L, TIE2.
The target of experiment [4] is T1, panel of 255 wild-type kinases (Homo sapiens, UniProt Q96KB5).
T1 sequence (Q96KB5 1-322): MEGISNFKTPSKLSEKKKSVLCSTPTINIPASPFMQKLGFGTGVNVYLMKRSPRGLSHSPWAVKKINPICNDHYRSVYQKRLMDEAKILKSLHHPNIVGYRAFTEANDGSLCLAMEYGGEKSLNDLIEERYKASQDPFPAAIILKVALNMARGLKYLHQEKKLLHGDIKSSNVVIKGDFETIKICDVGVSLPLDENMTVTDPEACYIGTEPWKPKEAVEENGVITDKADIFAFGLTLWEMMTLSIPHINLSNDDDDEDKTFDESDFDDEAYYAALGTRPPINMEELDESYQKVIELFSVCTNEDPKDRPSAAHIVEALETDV
The conditions noted are these: kinase PBK; 1 µmol/L single concentration; read-out: %-inhibition at 1 µmol/L, PBK.

In experiment [5] the target is panel of 255 wild-type kinases (Homo sapiens, UniProt Q9UBS0). The conditions noted are these: p70S6Kβ; 1 µmol/L single concentration; read-out: %-inhibition, p70S6Kβ.
In experiment [6] the target is panel of 255 wild-type kinases (Homo sapiens, UniProt P19784). Particulars: kinase CK2α2/β; 1 µmol/L single concentration; read-out: %-inhibition at 1 µmol/L, CK2α2/β.
Experiment [7] deals with panel of 255 wild-type kinases (Homo sapiens, UniProt P08581). The conditions noted are these: MET; 1 µmol/L single concentration.
In experiment [8] the target is panel of 255 wild-type kinases (Homo sapiens, UniProt P35968). The conditions noted are these: read-out: %-inhibition at 1 µmol/L, KDR.
For experiment [9], the target named is panel of 255 wild-type kinases (Homo sapiens, UniProt P06239). The conditions noted are these: kinase LCK; 1 µmol/L single concentration; read-out: %-inhibition at 1 µmol/L, LCK.
The target in experiment [10] is panel of 255 wild-type kinases (Homo sapiens, UniProt P14616). The conditions noted are these: kinase IRR; 1 µmol/L single concentration; read-out: %-inhibition at 1 µmol/L, IRR.
Experiment [11] has as its target panel of 255 wild-type kinases (Homo sapiens, UniProt P49841). Particulars: kinase GSK3β; 1 µmol/L single concentration.
Experiment [12] concerns the target panel of 255 wild-type kinases (Homo sapiens, UniProt P49137). The conditions noted are these: kinase MAPKAPK2; 1 µmol/L single concentration; read-out: %-inhibition at 1 µmol/L, MAPKAPK2.
Experiment [13] deals with panel of 255 wild-type kinases (Homo sapiens, UniProt P42685). Particulars: kinase FRK; 1 µmol/L single concentration; read-out: %-inhibition at 1 µmol/L, FRK.
Experiment [14] addresses panel of 255 wild-type kinases (Homo sapiens, UniProt Q08345). The conditions noted are these: kinase DDR1; 1 µmol/L single concentration; read-out: %-inhibition at 1 µmol/L, DDR1.
The target of experiment [15] is panel of 255 wild-type kinases (Homo sapiens, UniProt Q15208). The conditions noted are these: NDR1; 1 µmol/L single concentration; read-out: %-inhibition, NDR1.
In experiment [16] the target is panel of 255 wild-type kinases (Homo sapiens, UniProt Q15349). The conditions noted are these: kinase RSK3; 1 µmol/L single concentration; read-out: %-inhibition at 1 µmol/L, RSK3.
For experiment [17], the target named is panel of 255 wild-type kinases (Homo sapiens, UniProt P50750). The conditions noted are these: CDK9/CycT1 kinase assay; 1 µmol/L single concentration; read-out: %-inhibition CDK9/CycT1.
Experiment [18] concerns the target panel of 255 wild-type kinases (Homo sapiens, UniProt P06241). The conditions noted are these: kinase FYN [isoform a]; 1 µmol/L single concentration; read-out: %-inhibition at 1 µmol/L, FYN [isoform a].
In experiment [19] the target is panel of 255 wild-type kinases (Homo sapiens, UniProt P23443). Particulars: p70S6K; 1 µmol/L single concentration; read-out: %-inhibition, p70S6K.
Experiment [20] has as its target panel of 255 wild-type kinases (Homo sapiens, UniProt P29597). The conditions noted are these: kinase TYK2; 1 µmol/L single concentration; read-out: %-inhibition at 1 µmol/L, TYK2.
Setting [21] is: kinase KDR, 1 µmol/L single concentration.

Like-named read-outs stand apart in the source and are kept apart here.

Turning to `Cn1cnc2c(F)c(Nc3ccc(Br)cc3F)c(C(=O)NOCCO)cc21` [binimetinib], the inhibition at 1 µM in experiment [1] was -0.416%; in experiment [2], -0.0739%; in experiment [3] it was 2.63%; in experiment [4] it was 0.203%; in experiment [5], 1.09%; in experiment [6], -1.89%. Besides, the inhibition at 1 µM in [7] is 0.851%; in experiment [8] (setting [21]) it was 15%; in [9], -0.655%; in [10], -5.48%; in experiment [11], -1.84%; in experiment [12], -13%. For the same molecule, the inhibition at 1 µM in [13] is 3%; in experiment [14], -0.162%; in [15], -1.86%; in experiment [16] it was -5%; in [17], -1.47%; in experiment [18] it was 3.76%. Besides, the inhibition at 1 µM in [19] was 4.72%; in [20], -4%.

As to `COc1ccc(CN2C3CC2CN(c2ccc(-c4cc(OCC(C)(C)O)cn5ncc(C#N)c45)cn2)C3)cn1` [selpercatinib], the inhibition at 1 µM in [1] is -2.46%; in [2], 0.675%; in experiment [3], 43%; in [4], -7%; in experiment [5] it was 6.63%; in experiment [6] it was 0.638%. For the same molecule, the inhibition at 1 µM is 23% in [7]; 99% in experiment [8]; 77% in [9]; 3% in [10]; 40% in experiment [11]; -5.47% in experiment [12]. Further, the inhibition at 1 µM is 13% in experiment [13]; 89% in experiment [14]; -1.18% in [15]; 56% in [16]; 2.54% in experiment [17]; 24% in [18]. Also, the figures for the inhibition at 1 µM in [19] and in experiment [20] were 42% and 3.39%, respectively.

Regarding `CCN1C(=O)N(c2c(F)c(OC)cc(OC)c2F)Cc2cnc3[nH]c(CN4CCOCC4)cc3c21` [pemigatinib], the inhibition at 1 µM was -9% in experiment [1]; 48% in experiment [2]; 28% in experiment [3]; -5.57% in experiment [4]; -0.851% in experiment [5]; -5% in [6]. In addition, the inhibition at 1 µM is -2.49% in experiment [7]; 96% in experiment [8]; 17% in experiment [9]; 8% in experiment [10]; -7% in [11]; -0.432% in experiment [12]. For the same molecule, the inhibition at 1 µM in [13] was 10%; in [14] it was 41%; in experiment [15] it was -4.31%; in [16], -7.51%; in experiment [17], 7%; in experiment [18], 9%. Also, the figures for the inhibition at 1 µM in experiment [19] and in experiment [20] were -0.418% and -6.39%, respectively.

For the molecule `CO[C@]1(C(=O)N[C@@H](C)c2ccc(-n3cc(F)cn3)nc2)CC[C@H](c2nc(C)cc(Nc3cc(C)[nH]n3)n2)CC1` [pralsetinib], the inhibition at 1 µM in [1] was -13%; in experiment [2] it was -1.2%; in [3], 5.49%; in experiment [4], -1.86%; in [5] it was 5.54%; in experiment [6], 4.29%. The inhibition at 1 µM in experiment [7] was 5.27%; in experiment [8] (setting [21]), 95%; in experiment [9], 98%; in experiment [10], 10%; in experiment [11], 51%; in experiment [12], -31%. The inhibition at 1 µM in experiment [13] turned out to be 82%; in experiment [14], 98%; in experiment [15] it was 7.54%; in [16], 64%; in experiment [17], 6%; in [18], 82%. For the same molecule, the inhibition at 1 µM in experiment [19] turned out to be 29%; in experiment [20], 91%.

As for `CCn1c(=O)c(-c2cc(NC(=O)Nc3ccccc3)c(F)cc2Br)cc2cnc(NC)cc21` [ripretinib], the inhibition at 1 µM in experiment [1] was -2.31%; in experiment [2] it was -7%; in experiment [3] it was 79%; in experiment [4], -4%; in experiment [5], 2.19%; in experiment [6], -0.613%. The inhibition at 1 µM in experiment [7] was 8%; in experiment [8] (setting [21]) it was 111%; in experiment [9], 99%; in [10], 4.5%; in experiment [11], -0.349%; in experiment [12], -24%. In addition, the inhibition at 1 µM came out at 87% in experiment [13]; 90% in [14]; 0.881% in [15]; 12% in experiment [16]; 0.112% in experiment [17]; 23% in [18]. Further, the inhibition at 1 µM was 64% in experiment [19] and 4.46% in [20].

`Cc1nc(NC(=O)N2CCC[C@H]2C(N)=O)sc1-c1ccnc(C(C)(C)C(F)(F)F)c1` [alpelisib]: the inhibition at 1 µM is -1.58% in experiment [1]; 2% in experiment [2]; -0.712% in [3]; -1.24% in [4]; 4.37% in experiment [5]; -1.53% in experiment [6]. Moreover, the inhibition at 1 µM in experiment [7] was -1%; in [8] (setting [21]), 8%; in experiment [9], 5%; in [10] it was 7%; in experiment [11], -4%; in [12], -16%. The inhibition at 1 µM was -2.26% in experiment [13]; 3.8% in experiment [14]; 0.245% in experiment [15]; -1.47% in experiment [16]; -0.929% in experiment [17]; 1.52% in experiment [18]. Besides, the inhibition at 1 µM in [19] was 9%; in experiment [20], -4%.
